{
  "source": "patent US8350062B2",
  "about": "“Synthesis and anticancer activity of new actin-targeting small-molecule agents” (priority 2009, dated 2013)",
  "assay_in_all_cases": "NCI 60 cell line single dose screen",
  "type_in_all_cases": "cell-based, human",
  "key": {"PC-3": {"tested_on": "PC-3", "details": "PC-3 (Prostate Cancer), 10 micromolar, 48 h", "source_text": "(§1) Analog 10 was screened utilizing 60 different human tumor cell lines, representing leukemia, melanoma and cancers of the lung, colon, brain, ovary, breast, prostate, and kidney in order to show selective growth inhibition or cell killing of particular tumor cell lines. This screen is unique in that the complexity of a 60 cell line dose response produced by a given compound results in a biological response pattern which can be utilized in pattern recognition algorithms (COMPARE program. See: http://dtp.nci.nih.gov/docs/compare/compare.html). Using these algorithms, it is possible to assign a putative mechanism of action to a test compound, or to determine that the response pattern is unique and not similar to that of any of the standard prototype compounds included in the NCI database. In addition, following characterization of various cellular molecular targets in the 60 cell lines, it may be possible to select compounds most likely to interact with a specific molecular target.\n(§2) The screening is a two-stage process, beginning with the evaluation of the compound against the 60 cell lines at a single dose of 10 uM.\n(§3) The human tumor cell lines of the cancer screening panel are grown in RPMI 1640 medium containing 5% fetal bovine serum and 2 mM L-glutamine. For a typical screening experiment, cells are inoculated into 96 well microtiter plates in 100 μL at plating densities ranging from 5,000 to 40,000 cells/well depending on the doubling time of individual cell lines. After cell inoculation, the microtiter plates are incubated at 37° C., 5% CO2, 95% air and 100% relative humidity for 24 h prior to addition of experimental drug.\n(§4) After 24 h, two plates of each cell line are fixed in situ with TCA, to represent a measurement of the cell population for each cell line at the time of drug addition (Tz). Experimental drugs are solubilized in dimethyl sulfoxide at 400-fold the desired final maximum test concentration and stored frozen prior to use. At the time of drug addition, an aliquot of frozen concentrate is thawed and diluted to twice the desired final maximum test concentration with complete medium containing 50 μg/ml gentamicin.\n(§5) Following drug addition, the plates are incubated for an additional 48 h at 37° C., 5% CO2, 95% air, and 100% relative humidity. For adherent cells, the assay is terminated by the addition of cold TCA. Cells are fixed in situ by the gentle addition of […] of cold 50% (w/v) TCA (final concentration, 10% TCA) and incubated for 60 minutes at 4° C. The supernatant is discarded, and the plates are washed five times with tap water and air dried. Sulforhodamine B (SRB) solution (100 μl) at 0.4% (w/v) in 1% acetic acid is added to each well, and plates are incubated for 10 minutes at room temperature. After staining, unbound dye is removed by washing five times with 1% acetic acid and the plates are air dried. Bound stain is subsequently solubilized with 10 mM trizma base, and the absorbance is read on an automated plate reader at a wavelength of 515 nm. For suspension cells, the methodology is the same except that the assay is terminated by fixing settled cells at the bottom of the wells by gently adding 50 μl of 80% TCA (final concentration, 16% TCA). Using the absorbance measurements [time zero, (Tz), control growth, (C), and test growth in the presence of drug (Ti)], the percentage growth is calculated."}, "HCT-116": {"tested_on": "HCT-116", "details": "HCT-116 (Colon Cancer), 10 micromolar, 48 h", "source_text": "as §1, §2, §3, §4, §5"}, "OVCAR-5": {"tested_on": "OVCAR-5", "details": "OVCAR-5 (Ovarian Cancer), 10 micromolar, 48 h", "source_text": "as §1, §2, §3, §4, §5"}, "SF-295": {"tested_on": "SF-295", "details": "SF-295 (CNS Cancer), 10 micromolar, 48 h", "source_text": "as §1, §2, §3, §4, §5"}, "NCI-H23": {"tested_on": "NCI-H23", "details": "NCI-H23 (Non-Small Cell Lung Cancer), 10 micromolar, 48 h", "source_text": "as §1, §2, §3, §4, §5"}, "MOLT-4": {"tested_on": "MOLT-4", "details": "MOLT-4 (Leukemia), 10 micromolar, 48 h", "source_text": "as §1, §2, §3, §4, §5"}, "A498": {"tested_on": "A498", "details": "A498 (Renal Cancer), 10 micromolar, 48 h", "source_text": "as §1, §2, §3, §4, §5"}, "SK-MEL-5": {"tested_on": "SK-MEL-5", "details": "SK-MEL-5 (Melanoma), 10 micromolar, 48 h", "source_text": "as §1, §2, §3, §4, §5"}, "MCF7": {"tested_on": "MCF7", "details": "MCF7 (Breast Cancer), 10 micromolar, 48 h", "source_text": "as §1, §2, §3, §4, §5"}, "HCT-15": {"tested_on": "HCT-15", "details": "HCT-15 (Colon Cancer), 10 micromolar, 48 h", "source_text": "as §1, §2, §3, §4, §5"}, "SW-620": {"tested_on": "SW-620", "details": "SW-620 (Colon Cancer), 10 micromolar, 48 h", "source_text": "as §1, §2, §3, §4, §5"}, "MDA-MB-468": {"tested_on": "MDA-MB-468", "details": "MDA-MB-468 (Breast Cancer), 10 micromolar, 48 h", "source_text": "as §1, §2, §3, §4, §5"}, "EKVX": {"tested_on": "EKVX", "details": "EKVX (Non-Small Cell Lung Cancer), 10 micromolar, 48 h", "source_text": "as §1, §2, §3, §4, §5"}, "SNB-19": {"tested_on": "SNB-19", "details": "SNB-19 (CNS Cancer), 10 micromolar, 48 h", "source_text": "as §1, §2, §3, §4, §5"}, "KM12": {"tested_on": "KM12", "details": "KM12 (Colon Cancer), 10 micromolar, 48 h", "source_text": "as §1, §2, §3, §4, §5"}, "SNB-75": {"tested_on": "SNB-75", "details": "SNB-75 (CNS Cancer), 10 micromolar, 48 h", "source_text": "as §1, §2, §3, §4, §5"}, "ACHN": {"tested_on": "ACHN", "details": "ACHN (Renal Cancer), 10 micromolar, 48 h", "source_text": "as §1, §2, §3, §4, §5"}, "UO-31": {"tested_on": "UO-31", "details": "UO-31 (Renal Cancer), 10 micromolar, 48 h", "source_text": "as §1, §2, §3, §4, §5"}, "CCRF-CEM": {"tested_on": "CCRF-CEM", "details": "CCRF-CEM (Leukemia), 10 micromolar, 48 h", "source_text": "as §1, §2, §3, §4, §5"}, "IGROV1": {"tested_on": "IGROV1", "details": "IGROV1 (Ovarian Cancer), 10 micromolar, 48 h", "source_text": "as §1, §2, §3, §4, §5"}, "MDA-MB-435": {"tested_on": "MDA-MB-435", "details": "MDA-MB-435 (Melanoma), 10 micromolar, 48 h", "source_text": "as §1, §2, §3, §4, §5"}, "NCI-H226": {"tested_on": "NCI-H226", "details": "NCI-H226 (Non-Small Cell Lung Cancer), 10 micromolar, 48 h", "source_text": "as §1, §2, §3, §4, §5"}},
  "data": [
    {"smiles": "COCCC(=O)NC[C@H](O)[C@H](C)C(=O)NCCC[C@H]1O[C@@]2(CCC[C@@H](CC[C@H](C)/C=C(\\C)[C@H](C)O)O2)CCC1C", "note": "(stereo partly shown) [Analog 10]", "values": [
      {"measurement": "Growth Percent", "setting": "PC-3", "result": 66.25, "unit": "%"},
      {"measurement": "Growth Percent", "setting": "HCT-116", "result": 55.84, "unit": "%"},
      {"measurement": "Growth Percent", "setting": "OVCAR-5", "result": 61.79, "unit": "%"},
      {"measurement": "Growth Percent", "setting": "SF-295", "result": 13.26, "unit": "%"},
      {"measurement": "Growth Percent", "setting": "NCI-H23", "result": 56.78, "unit": "%"},
      {"measurement": "Growth Percent", "setting": "MOLT-4", "result": 57.48, "unit": "%"},
      {"measurement": "Growth Percent", "setting": "A498", "result": 1.82, "unit": "%"},
      {"measurement": "Growth Percent", "setting": "SK-MEL-5", "result": 75.27, "unit": "%"},
      {"measurement": "Growth Percent", "setting": "MCF7", "result": 62.27, "unit": "%"},
      {"measurement": "Growth Percent", "setting": "HCT-15", "result": 58.89, "unit": "%"},
      {"measurement": "Growth Percent", "setting": "SW-620", "result": 45.90, "unit": "%"},
      {"measurement": "Growth Percent", "setting": "MDA-MB-468", "result": 29.03, "unit": "%"},
      {"measurement": "Growth Percent", "setting": "EKVX", "result": 29.10, "unit": "%"},
      {"measurement": "Growth Percent", "setting": "SNB-19", "result": 75.95, "unit": "%"},
      {"measurement": "Growth Percent", "setting": "KM12", "result": 73.09, "unit": "%"},
      {"measurement": "Growth Percent", "setting": "SNB-75", "result": 6.67, "unit": "%"},
      {"measurement": "Growth Percent", "setting": "ACHN", "result": 51.57, "unit": "%"},
      {"measurement": "Growth Percent", "setting": "UO-31", "result": 22.67, "unit": "%"},
      {"measurement": "Growth Percent", "setting": "CCRF-CEM", "result": 24.00, "unit": "%"},
      {"measurement": "Growth Percent", "setting": "IGROV1", "result": 17.52, "unit": "%"},
      {"measurement": "Growth Percent", "setting": "MDA-MB-435", "result": 72.88, "unit": "%"},
      {"measurement": "Growth Percent", "setting": "NCI-H226", "result": 58.32, "unit": "%"}
    ]}
  ]
}
